Reference: patent US20120329879A1, “BETA-ADRENERGIC RECEPTOR AGONISTS AND USES THEREOF” (THE UNIVERSITY OF TENNESSEE RESEARCH FOUNDATION, priority 2010, published 2012)
Several values for one entry are separate records, joined by “and”; a condition that tells them apart may be missing. Identical values can stand only once. Entries after “also recorded” stand apart in the source; their conditions may differ.

Assays:
[1] = test system: retinal vasculature of hypoxic mice; assay: Oxygen-induced retinopathy model of proliferative diabetic retinopathy; format: in vivo; conditions: 1 mM eye drops once daily on days 13, 14, 15, sacrificed day 17
Protocol: A model of oxygen-induced retinopathy was used to determine the effects in vivo of Compound 2 on mice. Mice were placed into a chamber with 100% oxygen at day 7 of life. On day 12, they were removed from the chamber into normal air. The retina interprets this as hypoxia and starts angiogenesis. Mice were treated with 1 mM Compound 2 in eye drops once daily on days 13, 14, 15. Animals were sacrificed on day 17. FIGS. 19A-19 Retinal flat mounts were prepared.

[2] = test system: retinal capillaries of diabetic rats; assay: Quantitation of acellular (degenerate) capillaries in trypsin-digested retinal vasculature; format: in vivo, rat; conditions: 1 mM eye drops, 8 months of diabetes, hydrochloride
Protocol: For the acellular capillary counts, retinas from an eye of control, diabetic, and diabetic+2 were used. Eyes were enucleated and placed into 10% buffered formalin for 5 days. The retina was dissected in 3% crude trypsin solution (Difco Bacto Trypsin 250, Detroit, Mich.) containing 0.2 M sodium fluoride at 37 C for 2 hours (5). The neural retina was gently brushed away and the remaining retinal vascular tree was dried onto a glass slide. Once the isolated retinal vascular tree was dried onto the glass slide, the slide was stained with hematoxylin-periodic acid-Schiff. Degenerate (acellular) capillaries were counted in mid-retina in six to seven fields evenly spaced around the retina. Degenerate capillaries were identified as capillary-sized tubes having no nuclei anywhere along their length. Degenerate capillaries were counted only if their average diameter was at least 20% of that found in surrounding healthy capillaries (6-7).

[3] = Tissue distribution of Compound 2 in heart, lung and spleen after topical delivery; format: in vivo; conditions: rat, 24 hours after topical 10 mg/kg, single animals 1-5
left ventricle = assay: Heart left ventricle sections and collagen staining in type I diabetic rats; format: in vivo, rat; conditions: type I diabetic rats treated daily with 1 mM
From the text: Staining is for collagen intensity (FIG. 11B), which is increased in diabetes. Analyses on the rats were done for acute changes (8 weeks of diabetes, 45 rats) and chronic changes (8 months of diabetes, 45 rats). In addition to all measurements on the retina, tissue sections of the heart were taken at 8 weeks and 8 months to insure that there is no hypertrophy of the ventricles due to the drug. A Western blot for myosin light chain, a surrogate marker of cardiovascular hypertrophy was also performed. Each month, all rats receive 2 analyses of visual function, electroretinogram (ERG) and live retinal imaging using Optical Coherence […] (OCT). Retinal thickness and live retinal imaging were assessed using rodent OCT. This technology allows for non-invasive visualization of each layer of the retina for multiple testing of the same animal.

[4] = test system: insulin receptor beta (Tyr 1150/1151); assay: Western blot of phosphorylated to total insulin receptor beta in rat retina; format: in vivo; conditions: diabetic rats, 1 mM eye drops
From the text: The other eye from each animal was used for protein analyses for inflammatory markers and insulin receptor signaling. Western blotting was done as described (9). Antibodies used were total insulin receptor beta (1:500, Cellular Signaling, Danvers, Mass.), phosphorylated insulin receptor beta (Tyr 1150/1151, 1:500, Cellular Signaling, Danvers, Mass.), total Akt (1:500, Cellular Signaling, Danvers, Mass.), and phosphorylated Akt (Ser 473, 1:500, Cellular Signaling, Danvers, Mass.). For analyses of the data, mean densitometry values were obtained using the Kodak 2.0 software. The ratio of phosphorylated protein was compared to levels of total protein.

Rat Müller cells (rMC-1) = assay: TNFalpha and cleaved caspase 3 ELISA in Müller cells cultured in high glucose; format: cell-based
Protocol: Human retinal endothelial cells (HREC) were purchased from Cell Systems (Kirkland, Wash.) and grown in either basal (5 mM glucose) or growth (25 mM glucose) media. Both media is supplemented with 10% FBS and antibiotics. The day prior to experiments, cells are serum-starved for 18-24 hours. Rat Müller cells (rMC-1) were grown in DMEM medium with 5 mM glucose or 25 mM glucose. Media was supplemented with 10% FBS and antibiotics. Cells were serum starved prior to all experiments for 18-24 hours.
Human retinal endothelial cells (HREC) and rat Muller cells (rMC-1) in both glucose conditions were treated with Compound 2 at doses of 10 nM, 50 nM, 100 nM, 1 μM, and 10 μM of Compound 2. Cells of each type were grown in medium containing L-glucose to control for changes in osmolarity. 10 μM isoproterenol was also used for each condition as a positive control. Müller cells were treated for 1 hour and 24 hours, while HREC were treated for 30 and 60 minutes.
Following treatment, cells were collected into lysis buffer containing protease and phosphatase inhibitors. ELISA analyses for TNFalpha, cleaved caspase 3, and PKA were done according to manufacturers instructions. Data is compared against non-treated cells and cells at the various doses. A Kruskal-Wallis test is done, with a Dunn's test for secondary analyses. […] The dose that decreases TNFalpha and caspase 3 levels also increases PKA activity.

[5] = Müller cells in high glucose, 50 nM

## COc1cc(CCNC[C@H](O)c2ccc(O)c(O)c2)cc(OC)c1OC.Cl (single isomer, unassigned) [Compound 2, 4-[1-hydroxy-2-(1-ethylamino-3-,4-,5-trimethoxyphenyl)ethyl]benzene-1,2-diol hydrochloride]
[1]
  development of retinal vasculature (retinal flat mounts): the retina is much more developed and appears normal
[2]
  numbers of degenerate capillaries: significantly reduced numbers of degenerate capillaries; also recorded: significantly reduce numbers of degenerate capillaries to levels similar to controls
[3]
  concentration in Heart: <400 ng/g
[3]; hydrochloride
  concentration in Lung: 463.43 ng/g and 2262.08 ng/g and 2862.22 ng/g and 2060.08 ng/g and 535.24 ng/g
  concentration in Spleen: 12134.03 ng/g and 8393.8 ng/g and 7061.2 ng/g and 4544.4 ng/g and 34331.0 ng/g
[3]; heart, topical, 10 mg/kg
  concentration at 24 h: < 400 ng/g
Left ventricle
  left ventricle compared to untreated diabetic rats: no difference in the left ventricle
[4]; 2 months of diabetes
  insulin receptor beta tyrosine phosphorylation, 2 months: maintained insulin receptor beta tyrosine phosphorylation at levels similar to control animals
[4]; 8 months of diabetes
  insulin receptor beta tyrosine phosphorylation, 8 months: also maintained
Rat Müller cells (rMC-1); [5]
  reduction of TNFalpha levels compared to not-treated cells: 19%
  reduction of caspase 3 compared to not-treated cells: 55%
Rat Müller cells (rMC-1); Müller cells in high glucose, 50 nM, vs non-treated
  TNFalpha levels, in words: significantly reduced
Rat Müller cells (rMC-1); Müller cells in high glucose, 50 nM, vs non-treated, hydrochloride
  cleaved caspase 3 levels, in words: significantly decreased caspase 3 levels in Müller cells at the 24-hour time point; also recorded: significantly reduced levels of cleaved caspase 3
Rat Müller cells (rMC-1); Müller cells, 50 nM Compound 2 vs. 10 μM isoproterenol
  dose for blockade of apoptosis and TNFalpha activity compared with isoproterenol: significantly lower dose
